Like-named read-outs stand apart in the source and are kept apart here.

For test [1], the system named is A549 human cancer cell line. Conditions: cited from earlier work.
Test [2] deals with several human cancer cell lines, including A549 cells. Also noted: method as in PMID 19271727, PMID 22920243. Conditions: mean over several human cancer cell lines; cited from earlier work.
The test system of test [3] is several human cancer cell lines, including A549 cell line. Also noted: method as in PMID 22775218. Conditions: cited from earlier work.
The subject of test [4] is LPS-stimulated RAW264.7 macrophages. Conditions: cited from earlier work.
Test [5] relates to A549 cells. The experiment in a line: Cell cycle analysis of A549 cells by flow cytometry. The class given is cell-based, human. Conditions: 0.2 μg/mL, 24 h, positive control. On the procedure: We next investigated whether the treatment with AMTs 1–8 caused any cell cycle-related event, which inhibit the viability of A549 cell line. Thus, the cells were treated for 24 h with the AMTs at concentrations of IC50 (Table 1), or with colchicine (at 0.2 μg/mL) as the positive control, and then subjected to flow cytometry analysis to evaluate the distribution of cells in the different phases of the cell cycle (Figure 5A).
Figure 5 Effects of meroterpenoids 1–8 on cell cycle distribution of A549 cells. Cells were incubated with IC50 doses of the compounds for 24 h. (A) Cells were harvested to measure the cell cycle distribution by flow cytometry. (B) Quantitative analysis of cell cycle distribution after treatment. Data represent mean ±SE from three independent experiments. * p < 0.05, ** p < 0.01, and *** p < 0.001 compared with the untreated group (control).
For cell cycle analysis by flow cytometry, A549 cells were seeded at 1 × 10^6 cells/well in 6-well plates and incubated for 24 h followed by treatment with the AMTs, at concentration of IC50, and further incubation for 24 h. Colchicine (final concentration of 0.2 μg/mL) was used as positive control. Cells were harvested after trypsinization and washed once with PBS. Then, the cells were centrifuged at 1500 rpm for 5 min (25 °C), the pellet was fixed with 1 mL of ice-cold 70% ethanol, and the samples were stored at −4 °C overnight. Then the cells were washed with PBS and incubated in the darkness with PBS containing 5 mg/mL of RNase A for 48 h at 4 °C. Subsequently, 50 µL of propidium iodide (0.1 mg/mL) was added and the cells were incubated for 1 h at 4 °C. The relative DNA content per cell was analyzed using a Beckman Coulter Cytomics FC 500 MPL (Beckman Coulter Inc, San Diego, CA, USA). The data acquisition was performed with the DML program. The analysis of the acquired data was performed with the CXP cytometer.
In general terms: Flow cytometry measures light scatter and fluorescence of single cells or particles in a stream.

The term IC50 denotes the concentration needed to halve the response being measured. For 5β-hydroxyaplysin, in test [1] (read-out: IC50 towards A549), the 50% inhibitory concentration (IC50) is 35.3 µM.

For the molecule `C=C1CC[C@H](Br)[C@@]2(C)CC[C@@H](Br)[C@@]3(C)CC[C@H](OC(=O)c4ccc(O)c(c4)C[C@H]12)C(C)(C)O3` [bromophycolide P], the concentration for half-maximal inhibition (IC50) in test [2] was 7.9 µM.

For `C=C1C[C@H](O)[C@H](Br)C(C)(C)[C@@]12CCC(C)=C(Cl)C2` [elatol], in test [3], the “cell cycle effect (in words)” value was “cell cycle arrest in the G1 and the sub-G1 phases”. Also, in test [1] (read-out: IC50 towards A549), the half-inhibitory concentration (IC50) was 4.8 µM.

Turning to `CC1=CC[C@H](Br)[C@@]2(C)CC[C@@H](Br)C(C)(O)CC[C@@H](C(C)(C)Br)OC(=O)c3ccc(O)c(c3)C[C@H]12` (stereo partly shown) [bromophycolide O], the half-inhibitory concentration (IC50) in test [2] is 9.7 µM.

On to 5β-hydroxypalisadin B, for which the “production of NO, TNF-α, IL-6, IL-1β and COX-2, iNOS expression (in words)” value in test [4] is given as “inhibit”.

For nerogioltriol, the “activation of NFκB and production of NO, TNF-α and COX-2 (in words)” value in test [4] is given as “inhibit”.

Consider `COc1cc2c(c(OC)c1OC)-c1ccc(OC)c(=O)cc1[C@@H](NC(C)=O)CC2` [colchicine, reference compound], for which, in test [5], the “cells arrested in G2/M phase” value was 89.88%.

`CC(C)[C@@H]1CC=C[C@H]2[C@H]3[C@@](C)(C=CC(=O)[C@@]3(C)O)CC[C@]12CBr` [sphaerococcenol A]: in test [1] (read-out: IC50 growth of A549 cells), the IC50 was 3.7 µM.

Take `C=C(C)[C@@H]1CCC(C)(O)[C@H](Br)CC[C@@]2(C)[C@H](Cc3cc(ccc3O)C(=O)O1)C(C)=CC[C@@H]2Br` (stereo partly shown) [bromophycolide N]: the half-inhibitory concentration (IC50) in test [2] is 8.6 µM.

For the molecule bromophycoic acid D, the half-inhibitory concentration (IC50) in test [2] is 6.8 µM.

`CC1=C2Cc3cc(ccc3O)C(=O)O[C@H]3CC[C@@](C)(OC3(C)C)[C@H](Br)CC[C@]2(C)[C@@H](Br)CC1` [bromophycolide Q]: the concentration for half-maximal inhibition (IC50) in test [2] is 2 µM.

On to `C=C(C)[C@@H]1CCC(C)(O)[C@H](Br)CC[C@@]2(C)C(=C(C)CC[C@@H]2Br)Cc2cc(ccc2O)C(=O)O1` (stereo partly shown) [bromophycolide M], for which, in test [2], the IC50 was 3.1 µM.

The values are drawn from paper PMC7230911, “Meroterpenoids from the Brown Alga Cystoseira usneoides as Potential Anti-Inflammatory and Lung Anticancer Agents” (Marine Drugs, 2020).
